Source: patent publication US20250064789A1, “KETOAMIDE DERIVATIVES AND PHARMACEUTICAL USES THEREOF” (priority 2022, published 2025)

What was measured:
[1] = biological target: recombinant SARS-CoV-2 M^pro (Severe acute respiratory syndrome coronavirus 2 (2019-nCoV) (SARS-CoV-2), UniProt P0DTD1); assay: Inhibition of SARS-CoV-2 M^pro enzyme activity (fluorescent substrate assay); type: biochemical; conditions: inhibition of SARS-CoV-2 M^pro enzyme activity; values in nM; read-out: IC50
[2] = Cytotoxic assay against Vero E6 cells (MTT, 72 h); type: cell-based; conditions: African green monkey
Procedure: (§1) The cytotoxicity assessment of compounds was performed against Vero E6 cells. The specific experimental procedures: Vero E6 cells were seeded into a 96-well plate at a cell density of 2×10^4 cells/well, with 100 μL/well, and then incubated overnight at 37° C. in a 5% CO2 incubator. The next day, 100 μL of drug-containing medium was added to each well. The compound was diluted in a 2-fold serial dilution with a top concentration of […], for a total of 6 gradients. Three repeated wells were set for each concentration, and negative controls and blank controls without drugs were included for each experiment. […] All experimental data were analyzed using GraphPad Prism software.

in vivo = conditions: male, Sprague-Dawley, rat
Vero E6 cells = assay: Cytotoxic assay against Vero E6 cells (MTT, 72 h); type: cell-based
Procedure: as §1

[3] = male, Sprague-Dawley, rat, in vivo, iv, 1 mg/kg
[4] = system: HUVEC cells (human umbilical vein endothelial cells); assay: Cytotoxic assay against HUVEC cells (MTT, 72 h); type: cell-based
Procedure: (§2) BEAS-2B cells (normal human bronchial epithelial cells) and HUVEC cells (human umbilical vein endothelial cells) were used to evaluate the cytotoxicity of compounds against human-derived cells. The detailed experimental procedures: BEAS-2B cells or HUVEC cells were seeded into a 96-well plate at a cell density of 2×10^4 cells/well, that is, 100 µL/well, and then incubated overnight at 37° C. in a 5% CO2 incubator. The next day, 100 μL of drug-containing medium was added to each well. The compound was diluted in a 2-fold serial dilution with a top concentration of […], for a total of 6 gradients. Three repeated wells were set for each concentration, and negative controls and blank controls without drugs were included for each experiment. […] All experimental data were analyzed using GraphPad Prism software.

[5] = Metabolic stability using human liver microsomes; type: in vitro ADME; conditions: NADPH, 37° C.
[6] = In vivo pharmacokinetic properties in rats; conditions: SD rats
[7] = system: BEAS-2B cells (normal human bronchial epithelial cells); assay: Cytotoxic assay against human BEAS-2B cells (MTT, 72 h); type: cell-based
Procedure: as §2

[8] = Cytotoxic assay against HUVEC cells (MTT, 72 h); type: cell-based, human; conditions: human
Procedure: as §2

[9] = Cytotoxic assay against human BEAS-2B cells (MTT, 72 h); type: cell-based; conditions: human
Procedure: as §2

| SMILES | IC50 [1] | CC50 at 72 h [2] | AUC(0-inf) (in vivo; po, 10 mg/kg) | AUC(0-t) (in vivo; po, 10 mg/kg) | Cmax (in vivo; po, 10 mg/kg) | MRT inf (in vivo; po, 10 mg/kg) | Tmax (in vivo; po, 10 mg/kg) | half-life (in vivo; po, 10 mg/kg) | Vssobs [3] | MRT inf (in vivo; iv, 1 mg/kg) | Tmax (in vivo; iv, 1 mg/kg) | half-life (in vivo; iv, 1 mg/kg) | AUC(0-inf) (in vivo; iv, 1 mg/kg) | AUC(0-t) (in vivo; iv, 1 mg/kg) | Cmax (in vivo; iv, 1 mg/kg) | clearance (in vivo; iv, 1 mg/kg) | CC50 at 72 h [8] | CC50 at 72 h [9] | further results |
| --- | --- | --- | --- | --- | --- | --- | --- | --- | --- | --- | --- | --- | --- | --- | --- | --- | --- | --- | --- |
| O=C(NCc1ccccn1)C(=O)[C@@H](Cc1ccccc1)NC(=O)[C@H]1COCCN1C(=O)CC1CCC(F)(F)CC1 [Compound 289] | 10.6 ± 0.1 nM | > 500 µM | 3250 ± 462 ng·h/mL | 3240 ± 460 ng·h/mL | 1040 ± 349 ng/mL | 2.98 ± 0.33 h | 0.5 h | 3.28 ± 0.19 h | – | – | – | – | – | – | – | – | – | – | – |
| C[C@@H](NC(=O)C1CCC(F)(F)CC1)C(=O)N[C@H](Cc1ccccc1)C(=O)C(=O)NCc1nccs1 [Compound 354] | – | – | – | – | – | 4.89 ± 1.14 h | – | – | 1.31 ± 0.54 L/kg | 0.93 ± 0.18 h | 0.08 h | 2.42 ± 2.24 h | – | – | – | – | – | – | CC50 (Vero E6 cells): > 500 µM; CC50 [4]: > 500 µM; Human liver microsomes T1/2 [5]: 0.5935 h; AUCINF—obs ([6]; i.v. 1 mg/kg): 1020.76 ± 261.50 ng·h/mL; AUClast ([6]; i.v. 1 mg/kg): 1011.17 ± 258.49 ng·h/mL; Cmax ([6]; i.v. 1 mg/kg): 1105.29 ± 69.99 ng/mL; AUCINF—obs ([6]; p.o. 10 mg/kg): 2844.61 ± 326.65 ng·h/mL; AUClast ([6]; p.o. 10 mg/kg): 2567.31 ± 678.74 ng·h/mL; Cmax ([6]; p.o. 10 mg/kg): 306.27 ± 32.12 ng/mL; F % ([6]; p.o. 10 mg/kg): 25.39 ± 6.71%; T1/2 ([6]; p.o. 10 mg/kg): 3.01 ± 0.91 h; Tmax ([6]; p.o. 10 mg/kg): 2.67 ± 1.15 h; CC50 [7]: > 500 µM |
| CC(C)(NC(=O)c1cc(OC(F)(F)F)ccc1F)C(=O)N[C@H](Cc1ccccc1)C(=O)C(=O)NCc1ccccn1 [Compound 177] | 10.5 ± 0.2 nM | 157 µM | – | – | – | – | – | – | – | – | – | – | – | – | – | – | – | – | – |
| CC(C)(NC(=O)C1CCC(F)(F)CC1)C(=O)N[C@H](Cc1ccccc1)C(=O)C(=O)NCc1ccccn1 [Compound 172] | 14.9 ± 0.7 nM | 341 µM | – | – | – | – | – | – | – | – | – | – | – | – | – | – | – | – | – |
| C[C@@H](NC(=O)C1CCC(F)(F)CC1)C(=O)N[C@H](Cc1ccccc1)C(=O)C(=O)NCc1ccccn1 [Compound 145] | 17.1 ± 2.5 nM | – | 3850 ± 875 ng·h/mL | 3830 ± 872 ng·h/mL | 1170 ± 223 ng/mL | 3.75 ± 0.56 h | 0.33 ± 0.14 h | 3.19 ± 0.06 h | 14.5 ± 2.62 L/kg | 1.09 ± 0.13 h | 0.08 h | 1.37 ± 0.05 h | 1180 ± 208 ng·h/mL | 1160 ± 205 ng·h/mL | 1640 ± 86.6 ng/mL | 1.73 ± 0.37 mL/min/kg | – | – | bioavailability (in vivo; po, 10 mg/kg): 32.9 ± 7.51% |
| O=C(CC1CCC(F)(F)CC1)NCC(=O)N[C@H](Cc1ccccc1)C(=O)C(=O)NCc1ccccn1 [Compound 150] | 12.2 ± 0.1 nM | > 500 µM | 12900 ± 3230 ng·h/mL | 12600 ± 3080 ng·h/mL | 1300 ± 307 ng/mL | 5.95 ± 0.09 h | 0.42 ± 0.14 h | 4.26 ± 0.63 h | 2.91 ± 1.48 L/kg | 3.94 ± 1.26 h | 0.08 h | 3.59 ± 0.8 h | 6630 ± 2650 ng·h/mL | 6420 ± 2820 ng·h/mL | 2010 ± 322 ng/mL | 0.83 ± 0.21 mL/min/kg | – | – | bioavailability (in vivo; po, 10 mg/kg): 19.7 ± 4.8% |
| O=C(CC1CC(F)(F)C1)NCC(=O)N[C@H](Cc1ccccc1)C(=O)C(=O)NCc1nccs1 [Compound 387] | 12.5 ± 1.2 nM | > 500 µM | – | – | – | – | – | – | – | – | – | – | – | – | – | – | > 500 µM | > 500 µM | – |
| O=C(CC1CC(F)(F)C1)NCC(=O)N[C@H](Cc1ccccc1)C(=O)C(=O)NCc1cscn1 [Compound 423] | 13.2 ± 0.2 nM | > 500 µM | – | – | – | – | – | – | – | – | – | – | – | – | – | – | > 500 µM | > 500 µM | – |
| C[C@@H](NC(=O)CC1CC(F)(F)C1)C(=O)N[C@H](Cc1ccccc1)C(=O)C(=O)NCc1cscn1 [Compound 418] | 10.6 ± 0.3 nM | > 500 µM | – | – | – | – | – | – | – | – | – | – | – | – | – | – | > 500 µM | > 500 µM | – |
| O=C(CNC(=O)C1CCC(F)(F)CC1)N[C@H](Cc1ccccc1)C(=O)C(=O)NCc1ccccn1 [Compound 155] | 14.1 ± 0.1 nM | 281 µM | 12400 ± 2230 ng·h/mL | 12300 ± 2270 ng·h/mL | 1150 ± 289 ng/mL | 5.98 ± 0.36 h | 0.33 ± 0.14 h | 3.75 ± 0.62 h | 3.29 ± 0.42 L/kg | 3.99 ± 0.42 h | 0.08 h | 3.12 ± 0.35 h | 5120 ± 628 ng·h/mL | 5100 ± 615 ng·h/mL | 1570 ± 7.88 ng/mL | 0.88 ± 0.1 mL/min/kg | – | – | – |
